Experiment [1] concerns S. coelicolor M145 and nagE1, nagE2 mutants. Description: Development on R2YE agar plates with or without N-acetylglucosamine. The experiment is classed as cell-based, Streptomyces coelicolor. The note with it: N-acetylglucosamine 1% w/v. As for the experimental part: FIG. 18. N-acetylglucosamine is transported by NagE2 (SCO2907). Mutants deleted for the transport genes nagE1/(SCO2906), nagE2 (SCO2907), or both, were plated on R2YE agar plates with or without N-acetylglucosamine (1% w/v). Other strains on the agar plates are: S.coelicolor M145 (parent of all mutants), the dasR mutant BAP29 and the pts mutants ptsH (BAP1), crr (BAP2), and ptsI (BAP3). For phenotypes of the pts mutants see also FIG. 3A). […] This proves that indeed nagE2 is the transporter of N-caetylglucosamine and is essential for import of the inducer molecule for the DasR control system.
Two possible transporters for N-acetylglucosamine were identified on the S. coelicolor genome, namely the adjacent genes nagE1 (SCO2906) and nagE2 (SCO2907). Mutants were created for both genes by replacing the entire gene by the apramycin resistance cassette aacC4. A double mutant was also produced (BAP6). The method used to do this was by using pWHM3, as described previously (Nothaft et al., 2003). Mutants deleted for the transport genes nagE1 (BAP4), nagE2 (BAP5), or both (BAP6), were plated on R2YE agar plates with or without N-acetylglucosamine (1% w/v). Other strains on the agar plates are: S.coelicolor M145 (parent of all mutants), the dasR mutant BAP29 and the pts mutants ptsH (BAP1), crr (BAP2), and ptsI (BAP3). For phenotypes of the pts mutants see also FIG. 3A). […] This proves that indeed nagE2 is the transporter of N-acetylglucosamine and is essential for import of the inducer molecule for the DasR control system.

Experiment [2] deals with several streptomycetes (Bacillus subtilis as the indicator strain). Description: Global antibiotic activity assay: streptomycetes on MM mannitol with or without GlcNAc, Bacillus subtilis overlay. Type of experiment: cell-based, Streptomyces species. The settings on record: MM mannitol 0.5% with vs without GlcNAc 1%; for growth inhibition zones indicative of antibiotic production: B. subtilis indicator. As for the experimental part:
FIG. 23. Conservation of the GlcNAc-dependent antibiotic-inducing pathway amongst streptomycetes. Streptomycetes were grown on MM agar plates with 0.5% mannitol alone (left panel), or with added 1% GlcNAc (right panel), and an overlay was applied containing B. subtilis, allowing visualization of growth inhibition caused by antibiotic production. The tested streptomycetes were Streptomyces lividans 1326 (1326), Streptomyces hygroscopicus (hygro), Streptomyces collinus (colli), Streptomyces roseosporus (roseo), Streptomyces cinnamonensis (cinna), Streptomyces venezuelae (venez), Streptomyces clavuligerus (clavu), Streptomyces rimosus (rimos), Streptomyces griseus (grise), Streptomyces acrimycini (acrim), Streptomyces limosus (limos), and Streptomyces avermitilis (averm). See Materials and Methods section for exact nomenclature. The GlcNAc-triggering effect on antibiotic activity was most obvious for S. hygroscopicus, S. collinus, S. venezuelae, S. clavuligerus, S. rimosus, and S. griseus.
Samples (1 μl) of diluted spore suspensions were spotted on minimal medium plates containing 0.5% mannitol with or without 1% GlcNAc and incubated three days at 28° C. For the bioassay, we inoculated 10 ml of molten soft nutrient agar (SNA) with 500 μl of a Bacillus subtilis overnight culture (0D600˜1), and poured the mixture into square 12-cm-side Petri dishes. Plates were kept 2 h at 4° C. to solidify SNA and to allow diffusion of antibiotics produced, then incubated overnight at 30° C.
Is the GlcNAc-mediated control of antibiotic production a more widespread phenomenon in streptomycetes? To assess this, we evaluated the effect of GlcNAc on total antimicrobial activity (bactericidal and bacteristatic) of several streptomycetes, using Bacillus subtilis as the indicator strain. The tested strains were spotted on minimal medium containing mannitol (0.5%) with or without GlcNAc (1%). Excitingly, growth inhibition zones indicative of antibiotic production were much larger for Streptomyces clavuligerus (a producer of cephamycin), Streptomyces collinus (produces kirromycin), Streptomyces griseus (streptomycin producer), Streptomyces hygroscopicus (produces hygromycin), Streptomyces rimosus (produces oxytetracycline), and Streptomyces venezuelae (chloramphenicol, methymycin) (FIG. 23).

Experiment [3] has as its system S. coelicolor M145 and BAP29 mycelia. Description: Sugar uptake assay with N-[14C]acetyl-D-glucosamine into mycelia. The settings on record: parent M145, cultures grown in glycerol and inducer (GlcNAc); 20 μM N-[14C]acetyl-D-glucosamine. The experiment is classed as cell-based, Streptomyces coelicolor. The source says: FIG. 8. DasR represses genes the N-acetylglucosamine regulon (A) Effect of deletion of dasR on the uptake of GlcNAc. Left, uptake in glycerol-grown cultures; right, uptake in cultures grown in glycerol and inducer (GlcNAc); note that expression was constitutive in BAP29. (B) Western blot analysis of HPr (top) and IIA^Crr (bottom), showing that inducibility of these PTS proteins is controlled by DasR. (C) Transcriptional analysis of crr (for IIA^Crr), nagE2 (for IIC^GlcNAc), malX2 (for IIB^GlcNAc), nagB and chiF by semi-quantitative RT-PCR. Samples were collected before and 15, 30 and 60 min after the addition of GlcNAc to exponentially growing minimal medium glycerol cultures. 16S rRNA was used as control.
Uptake assays with 20 μM N-[^14C]acetyl-D-glucosamine (6.2 mCi mmol^−1) into mycelia were performed as described (Nothaft et al., 2003).
Since many of the predicted DasR targets were involved in the fate of carbon sources (Table 2), we analyzed the effects of the dasR mutation on sugar import. […] This correlated to constitutive protein levels of the universal PTS phosphotransferases HPr and IIA^Crr (FIG. 8B), and was supported by RT-PCR of the respective genes (malX2, nagE2, crr-ptsI and ptsH; FIG. 8C) that encode the PTS permease complex (IIB^GlcNAc, IIC^GlcNAc, IIA^Crr, EI, HPr).

Entries after “also recorded” stand apart in the source; their conditions may differ.

Regarding `CC(=O)N[C@H]1C(O)O[C@H](CO)[C@@H](O)[C@@H]1O` (some centres unmarked) [N-acetylglucosamine], the effect on development result in experiment [1] (nagE1/nagE2 double mutant (BAP6), R2YE agar) is reported as “no effect on development”; in experiment [1] (nagE1 mutant (BAP4), R2YE agar), “arrested in the vegetative state”; in experiment [1] (nagE2 mutant (BAP5), R2YE agar), “no effect on development”; in experiment [1] (parental strain S. coelicolor M145, R2YE agar), “arrested in the vegetative state”. The “antibiotic activity against B. subtilis” value is “did not seem to affect” in experiment [2] (Streptomyces acrimycini); “did not seem to affect” in experiment [2] (Streptomyces avermitilis); “did not seem to affect” in experiment [2] (Streptomyces cinnamonensis); “did not seem to affect” in experiment [2] (Streptomyces limosus); “did not seem to affect” in experiment [2] (Streptomyces lividans); “repressing effect” in experiment [2] (Streptomyces roseosporus). Further, the “growth inhibition zones indicative of antibiotic production” value in experiment [2] (Streptomyces clavuligerus), in experiment [2] (Streptomyces collinus), in experiment [2] (Streptomyces griseus), in experiment [2] (Streptomyces hygroscopicus), in experiment [2] (Streptomyces rimosus) and in experiment [2] (Streptomyces venezuelae) was “most obvious; also recorded: much larger” each time. Moreover, in experiment [3], the “PTS-mediated uptake of GlcNAc” value is reported as “induced”.
